Here are results for one sequence from PMC5295395, “Inhibition of PlexA1-mediated brain tumor growth and tumor-associated angiogenesis using a transmembrane domain targeting peptide” (Oncotarget, 2016).

For assay [1], the system named is GBM tumors grafted in brain of immunocompromised mice. The experiment in a line: orthotopic GBM graft in mouse brain. The format is in vivo, human cells in mouse. As to conditions: i.p., 1 μg/kg every 3 days for 3 weeks, 1.5 µg/kg 3 times per week. How it is done: To address the biological consequences of MTP-PlexA1-mediated inhibition of PlexA1 we used the U118MG-Luc glioma cell line genetically engineered to express the luciferase reporter gene. […] Cells were then grafted subcutaneously and tumor growth was monitored every 5 days for a total period of 20 days. […] The quantitative analysis of the cumulated luminescent signal acquired all along the protocol confirmed the strong reduction of tumor development translating into a marked 75% reduction of the averaged luminescent signal at the end point (Figure 6C). […] However, responses were strong for 8 out of 10 mice with some responses close to 100%, all of them being at least Partial Response (PR) (Figure 6D). In order to clarify the mechanism by which MTP-PlexA1 is exerting tumor growth inhibition we collected tumors and analyzed them histologically.
Supplementary Figure S5: We performed an orthotropic grafting experiment to monitor the effect of MTP-PlexA1 on GBM tumors developing in their native microenvironment. All procedures using animals are submitted to the Animal Care and Use Committee of AL/54/61/02/13. Immunocompromised mice are anesthetized with isoflurane 3% (BAXTER), under 0.5 L O2, and received a subcutaneous injection of ketofen 1% 1.5 mL/Kg (MERIAL). The scalp is incised and 100 000 cells of the dissociated GBM biopsy were engrafted with a 2 µL Hamilton syringe (HARVARD APPARATUS; HAM-88400) mounted on a stereotaxic set up (HARVARD APPARATUS) to inject cells at the following coordinates from the bregma x: −2 mm; y: +1 mm; z: −3.5 mm at a speed of 0.66 µl/min, 5 minutes after the syringe introduction. […] Tumor volume is calculated by the addition of every partial volume: [V total = Σ partial volumes = Σ d1 × (S1 + S2)/2 + d2 x (S2 + S3)/2 + … + dn x […]]. […] The immunostaining procedure used to quantify proliferation and vascularization of the tumor is described in the method section.While not strongly impacting tumor volume (−14.5%, p = 0.54, Mann Whitney test) the intraperitoneal […]

For a further assay, the system named is HUVEC cells. The experiment in a line: live-monitoring trans-well migration assay, HUVEC (X-Celligence). The format is cell-based, human. The note with it: p = 0.0002. The text has this:
We observed PlexA1 positive blood vessels in the tissue array of GBM samples (Figure 5A). […] To address this possibility we first used a transgenic zebra-fish model tg(kdrl:eGFP) highlighting the endothelial cells. This allowed us to assess the angiogenic activities in vivo by analyzing formation of intersegmental vessels (ISVs) after morpholino-based knockdown of the target.
Figure 5 MTP-PlexA1 inhibits developmental and tumor-specific PlexA1 pro-angiogenic role (A) Microphotographs illustrating the expression of PlexA1 in vascular-like structures in human glioma tissues. (Scale bar: 40 μm). (B) Morpholino-based PlexA1 knockdown in Zebrafish tg(kdrl:eGFP) line. Representative images of control, Plexin-A1 mismatch and Pexin-A1 knockdown embryos (plxna1MO) are shown 28 hours post fertilization (28hpf). […] (E) Live-monitoring of VEGF-induced HUVEC cell migration assay using the XCelligence system (transwell assay). (F) Microphotographs illustrating the expression of PlexA1 in blood vessels of the chick chorioallontoic membrane (upper left picture). Microphotographs (middle and lower left pictures) and camera lucida drawing (middle and lower right pictures) showing representative fields of observation after 24 h incubation with VEGF (100 ng/ml, +vehicle) or VEGF + MTP-PlexA1 (10^−7 M). The number of VEGF-induced new blood vessels is shown in the graph.

On to “TLPAIVGIGGGGGLLLLVIVAVLIAYKRK [MTP-PlexA1, synthetic transmembrane peptide mimicking the TMD of PlexA1]”, for which the “change of tumor volume, orthotopic” value in assay [1] (n = 12, p = 0.54, Mann Whitney) is listed as −14.5%. The “change of PH3 positive cells, orthotopic” value in assay [1] (p = 0.0023) is given as −38.3%. In addition, the “change of angiogenesis, orthotopic” value in assay [1] (p = 0.0378) is −14.3%. Further, the “change of VEGFA-induced HUVEC cell migration” value with HUVEC cells was −63%.
